Each structure is given as a SMILES string. pIC50: −log10 of the molar value. Bounds are passed on as bounds.

In the assay the target is T1, KRAS G12C and cRAF interaction (Homo sapiens, UniProt P01116, C118S/C51S/C80L/G12C).
T1 construct: truncated version comprising amino acids 1-169
T1 sequence (P01116 1-169 isoform P01116-2 G12C/C51S/C80L/C118S): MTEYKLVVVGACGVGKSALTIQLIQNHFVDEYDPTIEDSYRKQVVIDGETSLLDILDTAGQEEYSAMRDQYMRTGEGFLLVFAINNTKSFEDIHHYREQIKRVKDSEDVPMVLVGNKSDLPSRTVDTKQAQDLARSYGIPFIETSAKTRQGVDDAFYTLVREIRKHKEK
The experiment in a line: Inhibition of KRAS G12C and cRAF binding (AlphaScreen). The class given is biochemical. As to conditions: KRAS G12C (Cys-light, aa 1-169) preloaded with GMPPNP, cRaf RBD (aa 50-131), 2 hours incubation. In a few lines: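 Biotin-AviTag KRAS G12C (Cys-light C51S/C80L/C118S, aa 1-169, GMPPNP-loaded; 0.5 nM final)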
(In general: Alpha assays give light when donor and acceptor beads are brought close together.)
In turn, `O=C(/C=C/CN1CC2CCC(C1)O2)N1CCN(c2nc(OC[C@@]34CCCN3C[C@H](F)C4)nc3c(F)c(-c4cccc5cccc(Cl)c45)ncc23)CC12COC2` [Example 15, (E)-4-(8-oxa-3-azabicyclo[3.2.1]octan-3-yl)-1-(8-(7-(8-chloronaphthalen-1-yl)-8-fluoro-2-(((2R,7aS)-2-fluorotetrahydro-1H-pyrrolizin-7a(5H)-yl)methoxy)pyrido[4,3-d]pyrimidin-4-yl)-2-oxa-5,8-diazaspiro[3.5]nonan-5-yl) but-2-en-1-one] had a pIC50 of 7.00 to 8.00. Take `C=CC(=O)N1CCN(c2nc(OC[C@@]34CCCN3C[C@H](F)C4)nc3c(F)c(-c4cc(O)cc(Cl)c4C(F)(F)F)ncc23)CC12COC2` [Example 54, 1-(8-(7-(3-chloro-5-hydroxy-2-(trifluoromethyl)phenyl)-8-fluoro-2-(((2R,7aS)-2-fluorotetrahydro-1H-pyrrolizin-7a(5H)-yl)methoxy)pyrido[4,3-d]pyrimidin-4-yl)-2-oxa-5,8-diazaspiro[3.5]nonan-5-yl) prop-2-en-1-one]: the negative-log IC50 (pIC50) is > 8.00. For the compound `C=CC(=O)N1CCN(c2nc(OC[C@@]34CCCN3C[C@H](F)C4)nc3c(F)c(-c4cccc5ccc(F)c(CC)c45)ncc23)CC12COC2` [Example 45, 1-(8-(7-(8-ethyl-7-fluoronaphthalen-1-yl)-8-fluoro-2-(((2R,7aS)-2-fluorotetrahydro-1H-pyrrolizin-7a(5H)-yl)methoxy)pyrido[4,3-d]pyrimidin-4-yl)-2-oxa-5,8-diazaspiro[3.5]nonan-5-yl) prop-2-en-1-one], the negative-log IC50 (pIC50) was > 8.00. `C=CC(=O)N1CCN(c2nc(OC[C@@H]3CCCN3C)nc3c(F)c(-c4cccc5cccc(Cl)c45)ncc23)CC12COC2` [Example 1, (S)-1-(8-(7-(8-chloronaphthalen-1-yl)-8-fluoro-2-((1-methylpyrrolidin-2-yl)methoxy)pyrido[4,3-d]pyrimidin-4-yl)-2-oxa-5,8-diazaspiro[3.5]nonan-5-yl) prop-2-en-1-one]: the pIC50 was 6.30 to 7.00.

On to `C=CC(=O)N1[C@@H](C)CN(c2nc(OC[C@@]34CCCN3C[C@H](F)C4)nc3c(F)c(-c4cccc5cccc(Cl)c45)ncc23)CC12COC2` [Example 74], for which the negative-log IC50 (pIC50) was ≤ 6.30. On to `Cc1cc(/C=C/C(=O)N2CCN(c3nc(OC[C@@]45CCCN4C[C@H](F)C5)nc4c(F)c(-c5cccc6ccc(F)c(Cl)c56)ncc34)CC23COC3)nc(C)n1` [Example 27, (E)-1-(8-(7-(8-chloro-7-fluoronaphthalen-1-yl)-8-fluoro-2-(((2R,7aS)-2-fluorotetrahydro-1H-pyrrolizin-7a(5H)-yl)methoxy)pyrido[4,3-d]pyrimidin-4-yl)-2-oxa-5,8-diazaspiro[3.5]nonan-5-yl)-3-(2,6-dimethylpyrimidin-4-yl) prop-2-en-1-one], for which the pIC50 is 7.00 to 8.00. As for `O=C(/C=C/CN1C[C@H]2C[C@@H]1CO2)N1CCN(c2nc(OC[C@@]34CCCN3C[C@H](F)C4)nc3c(F)c(-c4cccc5cccc(Cl)c45)ncc23)CC12COC2` [Example 13, (E)-4-((1R,4R)-2-oxa-5-azabicyclo[2.2.1]heptan-5-yl)-1-(8-(7-(8-chloronaphthalen-1-yl)-8-fluoro-2-(((2R,7aS)-2-fluorotetrahydro-1H-pyrrolizin-7a(5H)-yl)methoxy)pyrido[4,3-d]pyrimidin-4-yl)-2-oxa-5,8-diazaspiro[3.5]nonan-5-yl) but-2-en-1-one], the pIC50 was 7.00 to 8.00. As for `O=C(/C=C/CN1C[C@H]2C[C@@H]1CO2)N1CCN(c2nc(OC[C@@]34CCCN3C[C@H](F)C4)nc3c(F)c(-c4cccc5ccc(F)c(Cl)c45)ncc23)CC12COC2` [Example 9, (E)-4-((1R,4R)-2-oxa-5-azabicyclo[2.2.1]heptan-5-yl)-1-(8-(7-(8-chloro-7-fluoronaphthalen-1-yl)-8-fluoro-2-(((2R,7aS)-2-fluorotetrahydro-1H-pyrrolizin-7a(5H)-yl)methoxy)pyrido[4,3-d]pyrimidin-4-yl)-2-oxa-5,8-diazaspiro[3.5]nonan-5-yl) but-2-en-1-one], the figure is > 8.00. `O=C(/C=C/CN1CC2CC(C1)O2)N1CCN(c2nc(OC[C@@]34CCCN3C[C@H](F)C4)nc3c(F)c(-c4cccc(Cl)c4C(F)(F)F)ncc23)CC12COC2` [Example 77]: the pIC50 is 7.00 to 8.00. Consider `C=CC(=O)N1CCN(c2nc(OC[C@@]34CCCN3C[C@H](F)C4)nc3c(F)c(-c4cc(O)cc(Cl)c4C4CC4)c(Cl)cc23)CC12COC2` [Example 78, 1-(8-(6-chloro-7-(3-chloro-2-cyclopropyl-5-hydroxyphenyl)-8-fluoro-2-(((2R,7aS)-2-fluorotetrahydro-1H-pyrrolizin-7a(5H)-yl)methoxy)quinazolin-4-yl)-2-oxa-5,8-diazaspiro[3.5]nonan-5-yl) prop-2-en-1-one], for which the pIC50 is > 8.00. `O=C(C#CCN1CCOCC1)N1CCN(c2nc(OC[C@@]34CCCN3C[C@H](F)C4)nc3c(F)c(-c4cccc5cccc(Cl)c45)ncc23)CC12COC2` [Example 16, 1-(8-(7-(8-chloronaphthalen-1-yl)-8-fluoro-2-(((2R,7aS)-2-fluorotetrahydro-1H-pyrrolizin-7a(5H)-yl)methoxy)pyrido[4,3-d]pyrimidin-4-yl)-2-oxa-5,8-diazaspiro[3.5]nonan-5-yl)-4-morpholinobut-2-yn-1-one] gave a pIC50 of 6.30 to 7.00. In the case of `O=C(/C=C/CN1CCOCC1)N1CCN(c2nc(OC[C@@]34CCCN3C[C@H](F)C4)nc3c(F)c(-c4cccc5cccc(Cl)c45)ncc23)CC12COC2` [Example 12, (E)-1-(8-(7-(8-chloronaphthalen-1-yl)-8-fluoro-2-(((2R,7aS)-2-fluorotetrahydro-1H-pyrrolizin-7a(5H)-yl)methoxy)pyrido[4,3-d]pyrimidin-4-yl)-2-oxa-5,8-diazaspiro[3.5]nonan-5-yl)-4-morpholinobut-2-en-1-one] it was ≤ 6.30.

As to `O=C(/C=C/CN1CC2CCC(C1)O2)N1CCN(c2nc(OC[C@@]34CCCN3C[C@H](F)C4)nc3c(F)c(-c4cccc5ccc(F)c(F)c45)ncc23)CC12COC2` [Example 22, (E)-4-(8-oxa-3-azabicyclo[3.2.1]octan-3-yl)-1-(8-(7-(7,8-difluoronaphthalen-1-yl)-8-fluoro-2-(((2R,7aS)-2-fluorotetrahydro-1H-pyrrolizin-7a(5H)-yl)methoxy)pyrido[4,3-d]pyrimidin-4-yl)-2-oxa-5,8-diazaspiro[3.5]nonan-5-yl) but-2-en-1-one], the pIC50 was > 8.00.

Broadly, the pIC50 is −log10 of the IC50, conventionally taken in molar units. A lower pIC50 goes with a high IC50.

These data come from patent US20260207615A1, “FLUOROPYRIDOPYRIMIDINE AND FLUOROQUINAZOLINE DERIVATIES AND METHODS OF USE THEREOF” (Frontier Medicines Corporation, priority 2022, published 2026).
